Like-named read-outs stand apart in the source and are kept apart here.
Assays:
[1] = target: CXCR-4 transfected U87 cell line (U87.CXCR4) (Homo sapiens (Human), UniProt P61073); experiment: Intracellular CXCL-12-induced calcium mobilization assay (FLIPR); format: cell-based; settings: U87.CXCR4 cells, CXCL-12 25-50 ng/mL; read-out: IC50 CXCL-12 Ca2+ flux U87.CXCR4+
In short: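 U87.CXCR4 cells were seeded at 20,000 per well, cultured 12 hours, then loaded with 4 μM Fluo-2 AM for 45 min at 37° C. in HBSS with 20 mM HEPES and 0.2% BSA, pH 7.4. Calcium flux triggered by CXCL-12 (25-50 ng/mL) was tracked over time by FLIPR fluorescence at 37° C.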

[2] = target: Jurkat cells expressing CXCR4 (Homo sapiens (Human), UniProt P61073); experiment: Chemokine (CXCL12-AF647) binding inhibition assay; settings: CXCL12-AF647 25 ng/mL, read-out: IC50 CXCL-12 binding Jurkat
Chain of Jurkat cells expressing CXCR4 (P61073 whole entry): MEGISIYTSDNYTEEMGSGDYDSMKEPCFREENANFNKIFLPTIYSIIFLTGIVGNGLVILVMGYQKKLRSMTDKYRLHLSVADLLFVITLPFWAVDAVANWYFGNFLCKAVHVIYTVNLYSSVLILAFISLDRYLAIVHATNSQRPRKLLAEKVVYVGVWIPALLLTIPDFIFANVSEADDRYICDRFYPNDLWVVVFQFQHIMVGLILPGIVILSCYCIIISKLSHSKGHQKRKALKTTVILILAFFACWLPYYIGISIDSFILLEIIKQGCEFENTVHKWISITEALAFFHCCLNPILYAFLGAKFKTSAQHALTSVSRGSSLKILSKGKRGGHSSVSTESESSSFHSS
In short: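 Cells in HBSS, 20 mM HEPES, 0.2% BSA, pH 7.4, preincubated 15 min at room temperature with compound, then 25 ng/mL CXCL12-AF647 for 30 min. After washing and paraformaldehyde fixation, bound ligand read by flow cytometry; percent inhibition calculated from MFI relative to unlabeled and ligand-only controls.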

in vitro = settings: human, Caco-2, pH 7.4
In short: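 Compounds at 10 μM in HBSS pH 7.4 (0.1–0.3% DMSO) were dosed on Caco-2 monolayers, apical-to-basolateral and basolateral-to-apical, for 90 min at 37 °C, in duplicate. Monolayer integrity was checked by TEER and lucifer yellow flux, read by fluorescence at 485/535 nm. Compound was quantified by LC-MS/MS and Papp calculated.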

[3] = Mouse brain uptake assay, 0-24 h, 4 time points; format: in vivo; settings: male, 3 mg/kg IV, 4 time points
Procedure: The study design (9 animals) consisted of administrating the drug (IV: 3 mg/kg (5 mL/kg) via tail vein injection) and collecting samples at terminal bleeding for plasma and brain at 0.083, 0.5 and 1 h. The blood collection was performed as follows: the animal was restrained manually and approximately 150 μL blood/time point was collected into a dipotassium EDTA tube via retro orbital puncture under anesthesia with isoflurane. The blood sample was put on ice and centrifuged to obtain a plasma sample (2000 g, 5 min under 4° C.) within 15 minutes. The brain collection was performed as follows: a mid-line incision was made in the animal's scalp and the skin was retracted. Using small bone cutters and rongeurs, the skull overlying the brain was removed. The brain was removed using a spatula and the brain rinsed with cold saline. The brain was placed in screw-top tubes, and the tubes were stored at −70° C. until analysis. The IV dosing solution was prepared in 50 mM citrate buffer (pH 4.0) at 0.6 mg/mL.
An aliquot of 30 μL sample was added to 150 μL MeCN containing 50 ng/mL IS (Dexamethasone). The mixture was vortexed for 5 min and centrifuged at 14,000 rpm for 5 min. An aliquot of 5 μL supernatant was injected for LC-MS/MS analysis.
An aliquot of 30 μL brain homogenate (brain:PBS=1:3, w/v) sample was added to 150 μL IS in ACN (Dexamethasone, 50 ng/mL). The mixture was vortexed for 5 min and centrifuged at 14,000 rpm for 5 min. An aliquot of 5 μL supernatant was injected for LC-MS/MS analysis.
The sample analysis was performed on LCMS/MS-003 (API4000, triple quadruple) under the following conditions: positive ion, ESI, MRM detection using dexamethasone as internal standard. HPLC conditions: mobile phase A: H2O (0.025% formic acid (FA) with 1 mM NH4OAc); mobile phase B: MeOH (0.025% FA with 1 mM NH4OAc) on Waters X-Bridge C18 (2.1×50 mm, 2.5 μm) column at 60° C.
A similar experiment was performed with 4 time points taken from 0-24 h.

[4] = Fraction of drug unbound to plasma proteins, mouse; format: in vitro ADME; settings: Mouse plasma proteins (Table 10); read-out: Fu (p) %
[5] = Fraction of drug unbound to brain proteins, mouse; format: in vitro ADME; settings: Mouse brain proteins (Table 10); read-out: Fu (b) %

Chain of CXCR-4 transfected U87 cell line (U87.CXCR4) (P61073 whole entry): as above

IC50 [1]: 0.01 to 100 nM | IC50 [2]: 0.01 to 100 nM | Papp A→B at 90 min, 10 μM (in vitro): 10 to 30 ×10⁻⁶ cm/s | Papp B→A at 90 min, 10 μM (in vitro): 10 to 30 ×10⁻⁶ cm/s | efflux ratio at 90 min, 10 μM (in vitro): 0.1 to 10 | AUC(0-t) ([3]; CD1, Mouse brain, read-out: AUClast (b)): 32300 ng·h/mL | AUC(0-t) ([3]; CD1, Mouse plasma, read-out: AUClast (p)): 1480 ng·h/mL | Kp ([3]; CD1, brain and plasma, Mouse): 21.8 | Kp uu ([3]; CD1, brain and plasma, Mouse): 3.35 | clearance ([3]; CD1, plasma, Mouse): 33.5 mL/min/kg | half-life ([3]; CD1, plasma, Mouse, read-out: t½ (converted)): 214 min | fraction unbound [4]: 0.039 | fraction unbound [5]: 0.006
SMILES: CCOCc1c([C@H]2CCC[C@@H](c3ncccc3Cl)N2C)nc2cccc(N3CCN(C)CC3)n12 [Compound I-117]

Source: patent US10759796B2, “CXCR4 inhibitors and uses thereof” (X4 Pharmaceuticals, Inc., priority 2016, dated 2020)
